# A melting point compilation (Tetko et al.; mined from patent text by program, amines drawn as free bases though some values may be those of a salt)
row,SMILES,melting point [°C]
1,O=[N+]([O-])C=CC1=CCN(c2ccccc2)N1,150
2,C=CCc1c(O)c(C(=O)OC)cc(Cl)c1NC(C)=O,189 to 190
3,Cc1noc(NS(=O)(=O)c2ccccc2-c2ccc(-c3ncco3)cc2Cn2nccn2)c1C,162 to 168
4,CCOC(=O)c1cc(-n2c(OC)nc(C(F)(F)F)c(F)c2=O)c(F)cc1Cl,69 to 72
5,COc1cc(C2CCN(C)CC2)ccc1-c1nc2c(N[C@H]3[C@@H](C(N)=O)[C@@H]4C=C[C@H]3C4)c(Cl)cnc2[nH]1,232 to 235
6,O=C(O)CC[C@H](NC(=O)c1cc2ccccc2[nH]1)C(=O)NC(c1ccc(Cl)cc1)c1ccc(Cl)cc1,207
7,CN(C)CCOc1c2c(nc3ccccc13)C(C)(C)OC2,92 to 93
8,CCCCOP(=O)(CCCCCC1(C(=O)NCC(F)(F)F)c2ccccc2-c2ccccc21)OCCCC,88 to 91
9,CS(=O)c1ccc(C2=C(c3ccccc3)C(=O)C(C)(C)O2)c(Cl)c1 (stereo unspecified),135 to 136
10,CSc1nc(Cl)c(Cl)nc1Cl,45 to 47
11,CCc1cc(O)nc(C)n1,118 to 119
12,O=C(O)C1Cc2cc(-c3ccc(Cl)cc3)ccc2O1 (stereo unspecified),94 to 96
13,Brc1ccn(-c2ccc(-c3ccccc3)cc2)c1,141 to 143
14,"CC(=O)SCC(Cc1ccccc1)NC(=O)N1CCN(c2ccc(Cl)cc2)CC1 (single isomer, unassigned; (+))",140
15,COC=C(C(=O)OC)N(C)c1nc(-c2ccc(Cl)cc2)cs1,104 to 105
16,Oc1ccc(Cn2c(S)nc3ccccc32)cc1,216 to 220
17,CCN1C(=O)C(C)(C)C(=O)N(C)c2cc(CN(CCn3ccc4oc(C)cc4c3=O)Cc3ccnn3C)ccc21,128 to 131
18,CNC(=O)Nc1cc(CNc2ncccc2C(=O)OC)ccn1,145 to 146
19,O=Cc1ccc2c(c1)Sc1ccccc1CC2,55.5 to 56.5
20,Nc1c(-c2ccc(C(F)(F)F)cc2F)nnn1-c1ccc(S(N)(=O)=O)cc1,184 to 185
21,Cc1cccc(-c2n[nH]cc2-c2ccc(F)c(-c3cn(CCO)cn3)c2)n1,248
22,FC(F)(F)c1cc(CO[C@H]2CCCN(Cc3cccnn3)[C@H]2c2ccccc2)cc(C(F)(F)F)c1,111 to 113
23,CCCCc1nc(C(C)=O)c(C#N)n1Cc1ccc(-c2ccccc2C(=O)O)cc1,> 55
24,CCn1ncc(-c2ccc3c(c2)c(C2=CCN(CCN4CCNC4=O)CC2)cn3-c2ccc(F)cc2)n1,143 to 145
25,Fc1ccc(Oc2cc3c(Cl)nc(Cl)nc3cn2)c(F)c1,144 to 146
26,CC(=O)NCCCCC(NC(C)=O)C(=O)O (racemic),138 to 139

row,SMILES,melting point [°C]
1,COc1ccc(OC)c2c1C[C@@H](O)[C@@H](N)C2 (relative stereo),193 to 196
2,O=C1Nc2ccc(F)cc2OC1CCO (stereo unspecified),136 to 138
3,COC(=O)c1ccc(C=CC=O)cc1,99 to 101
4,COc1ccc2c(c1O)C13CCN(CC4CC4)C(C2)C1CC(C)C(=O)C3 (stereo unspecified),176 to 178
5,Cc1cnn(C(C)C(=O)N(C)C)c1-c1ccccc1 (stereo unspecified),88 to 90
6,CCCC(=O)c1ccc(OCCN2CCN(c3cc(Cl)nnc3Cl)CC2)cc1,140 to 141
7,CCCCOC(=O)c1cc(=O)c2c(cc(OC)c3ncccc32)[nH]1,212 to 213
8,C=CC(=O)Oc1c(Cc2cc(C)cc(C(C)(C)C)c2O)cc(C)cc1C(C)(C)C,132 to 134
9,CC(C)(COc1ccc(Cl)cc1)C(=O)C(CC1CCCCC1)n1cncn1 (stereo unspecified),58 to 60
10,CCc1cccc(-c2nc(=O)c3ccccc3s2)n1,150 to 151
11,NNC(=O)C(=O)N(NC(=O)c1cc(Cl)ccc1O)C(=O)c1ccccc1O,> 330
12,COC(=O)COc1cc2c(c3c1c(C(=O)C(N)=O)c(C)n3Cc1ccccc1)CCC2,135 to 138
13,NCCC1(O)CCc2ccccc2C12CCCC2 (stereo unspecified),107 to 109
14,O=S(=O)(NCc1ccc(Br)cc1)c1ccccc1Br,108 to 110
15,c1ccc2c(c1)SCCc1c-2n(CCN2CCCCC2)c2ccccc12,118
16,CN(C)CCOc1ccc2c(=O)c3ccc(OCCN(C)C)cc3oc2c1,87.5 to 89
17,CCOP(=O)(OCC)C(C)c1cn(C(c2ccccc2)(c2ccccc2)c2ccccc2)cn1 (stereo unspecified),124 to 126
18,NC(=O)c1ccc(-c2ccc3nnn(Cc4ccc5ncccc5c4)c3n2)cc1Cl,212 to 215
19,O=C(O)CCc1cc(Cl)ccc1C(=O)O,156 to 158
20,COc1cc(SCc2ccccc2)c([N+](=O)[O-])cc1OC,174 to 176
21,CCOC(=O)c1cnn(-c2ccc(F)cc2)c1O,127 to 128
22,Cc1c(-c2cc(C#N)ccc2F)sc2nc(N)[nH]c(=O)c12,332 to 336
23,CN1CCC[C@H]1Cn1nc(-c2c(-c3ccccc3)nn3ccccc23)ccc1=O,114 to 117
24,CC(=O)/C=C(\C)c1ccc(C2CCCCC2)c(Br)c1,52 to 53
25,COc1cccc(Oc2c(NS(=O)(=O)c3ccc(C(C)(C)C)cc3)ncnc2OCCOc2ncc(Br)cn2)c1,168
26,CC(Oc1cc(O)ccc1[N+](=O)[O-])C(=O)O (stereo unspecified),190 to 195

row,SMILES,melting point [°C]
1,Cc1cc(-c2nc3cc(F)cc(F)c3c(=O)[nH]2)cc(C)c1OCCN1CCCC1,234 to 235
2,Cc1ccc(-c2cc(N)c(Cl)c(C(=O)O)n2)cc1C,192 to 194
3,O=C(NC1CN2CCC1CC2)C1(O)c2ccccc2-c2ccccc21 (stereo unspecified),230
4,CCN1C(=O)N(c2cc(Cl)cc(Cl)c2)C(=O)[C@]12CN(S(=O)(=O)c1cccc(C(=O)O)c1)C[C@H]2c1ccc(C#N)cc1 (relative stereo),145
5,Nc1nc(N2CCC2)c2ncn(C3C=CC(CO)C3)c2n1 (stereo unspecified),187 to 189
6,COC(=O)c1cccc([N+](=O)[O-])c1C(=O)O,166 to 168
7,O=c1cccc(C(F)F)[nH]1,125 to 127
8,COC(=O)c1ccc(O)c(-n2cccc2C=O)c1,147 to 148
9,Cc1ccc(S(=O)(=O)NNC2=CC(=O)CC(c3ccccc3Cl)C2)cc1 (stereo unspecified),235 to 236
10,CCCCCCCCCCC=CCc1c[nH]c(C(=O)NN)c1,130 to 132
11,COc1cccc(COc2ccc(S(=O)(=O)c3ccc(C)nc3Nc3c(C)cc(C)cc3C)cc2)c1OC,124 to 126
12,CCOC(=O)c1cc(OCc2ccccc2)ccc1O,71.5 to 73
13,CCCCN(N)C(=O)NC,48 to 50
14,Cn1cc(C=CC(=O)NO)c([N+](=O)[O-])n1,172 to 174
15,Cc1ccc(N2CC(COc3ccc(C(=O)O)cc3)CC2=O)cc1 (stereo unspecified),212 to 213
16,O=Cc1cccnc1S(=O)(=O)c1ccc(Cl)cc1,100 to 101
17,CCC(CC)c1nn(-c2ccc(Br)cn2)cc1CCCOc1c(C)cccc1CC(=O)O,120 to 121
18,O=C1CC(CF)(CF)Oc2ccc(C(F)(F)F)cc21,73 to 74.5
19,NC(=O)Cc1cnc2c(NC(=O)c3c(Cl)cccc3Cl)cccc2c1,251 to 253
20,O=C(O)CC1CCCc2c1n(Cc1ccc(Cl)cc1)c1c(F)cccc21 (stereo unspecified),94 to 94.5
21,COc1cc(C(=O)N2CCC(CCOS(C)(=O)=O)(c3ccc(Cl)c(Cl)c3)C2)cc(OC)c1OC (stereo unspecified),64 to 66
22,COC(=O)Nc1ccc(C(=O)O)cc1,195 to 196
23,CN(C)Cc1ccc(CSCCNc2nc(C(O)c3ccccc3)nn2C)o1 (stereo unspecified),121 to 122
24,Cc1c(NC(=O)c2ccc(OCC3CC3)cc2)ccc2cc(CNCC(C)(C)O)n(C)c12,180
25,Cc1cc2c(-c3ccccc3F)nc(=O)[nH]c2s1,282 to 284
26,CCCc1ccc2c(c1)C1(O)C(=O)c3ccccc3C1(O)O2 (stereo unspecified),126 to 127

row,SMILES,melting point [°C]
1,Cc1cc(COc2c(Cl)cc(CSc3ccc4ccccc4c3)cc2Cl)oc(=O)c1,125
2,[N-]=[N+]=Nc1ccnc2c(NC(=O)c3c(Cl)cccc3Cl)cccc12,188 to 193
3,CC(Oc1ccc(Oc2ccc(Cl)cc2)cc1)C(=O)N1CCCO1 (stereo unspecified),98 to 100
4,CCOC(=O)/C=C(/c1ccc(OC)cc1)c1cc(Cl)ccc1Cl,98 to 100
5,CCCn1c(=O)c(C=C(C#N)C#N)c2n(c1=O)CCS2,135 to 137
6,Cc1c(NC(=O)CC(C)(C)C)c(C)c2c(-c3ccc(C(C)C)cc3)coc2c1C,229 to 230
7,O=C(CCl)Nc1c(I)cc(I)c(C(=O)O)c1I,253 to 255
8,CC(=O)SCC(=Cc1ccccc1)C(=O)NCCC(=O)OCc1ccccc1,80
9,Cc1cc(COc2nn3c(-c4cc(C)on4)nnc3c3ccccc23)no1,243 to 245
10,CCc1cc(C)cc(CC)c1CC(=O)O,124
11,O=C(OCc1ccccc1)N1CC(O)(C(=O)O)C1,134 to 136
12,CCNC(=O)CN(c1ccccc1)[C@@H]1c2cc(C#N)ccc2OC(C)(C)[C@@H]1O,202 to 204
13,Cc1ccc(C2c3c(C)c(N4CCN(c5ccccc5[N+](=O)[O-])CC4)c(C)c(C)c3OC2(C)C)cc1 (stereo unspecified),178 to 180
14,O=c1oc2ccccc2c(O)c1C1CC(c2ccc(Oc3ccc(-c4ccccc4)cc3)cc2)Cc2ccccc21 (stereo unspecified),124 to 127
15,N#Cc1ccc2c(c1)CC(Br)C2=O (stereo unspecified),115 to 118
16,Cc1nnc(Sc2nc3cc(C(=O)c4ccccc4)ccc3nc2C(F)(F)F)s1,176 to 179
17,CSc1ccc(NC(=O)N(C)O)cc1C(F)(F)F,125
18,OC1Cc2c(I)cccc2CC1N1CCC(c2ccccc2)CC1 (stereo unspecified),194
19,Brc1ccccc1Cc1nc(-c2ccncc2)cs1,114 to 116
20,NC(c1ccccc1)c1ccc(O)cc1 (stereo unspecified),113 to 115
21,COC(=O)c1ccc(NC(=O)C(CC(=O)O)c2ccccc2)cc1 (stereo unspecified),190
22,CC(=O)Oc1cc(OCc2ccccc2)cc(OC(C)=O)c1,129 to 130
23,Cc1nc2cc3c(cc2c(=O)[nH]1)C(N(C)c1ccc(C(=O)NC(C(=O)O)c2ccc(CC(=O)O)cc2)c(F)c1)CC3 (mixture of isomers),196 to 200
